# Results: patent US20240261424A1, “ANTIBODY DRUG CONJUGATE” (NATIONAL CANCER CENTER, priority 2020, published 2024)
# Read-outs that look alike come from different tables or passages of the source. Where a SMILES comes first, the peptide text is derived from it. [ ]: non-standard residue; d: D form. The star is where a group is joined. Dolaproine = CO[C@@H]([C@@H]1CCCN1)[C@@H](C)C(=O)O; Dil = CC[C@H](C)[C@H](NC)[C@@H](CC(=O)O)OC; X1 = C[C@@H](N*)[C@@H](O)c1ccccc1; NMeV = CN[C@H](C(=O)O)C(C)C
# Experiments:
# [1] = test system: human pancreatic adenocarcinoma cell line (PSN-1); test: Cell-killing effect on PSN-1; assay type: cell-based; settings: read-out: IC50 values for PSN-1
# Experimental: (§1) The ADCs prepared above were evaluated in vitro for their cell-killing effects on human pancreatic adenocarcinoma cells by the following method.
# (§2) RPMI-1640 supplemented with 10% fetal bovine serum and penicillin-streptomycin-[…] (×100) suspension was used as the culture medium. Human pancreatic adenocarcinoma BxPC-3, PSN-1, and HPAF-II were adjusted to 5000 cells/mL, 2000 cells/mL, and 5000 cells/mL, respectively, and seeded on 96-well plates at 100 μL/well and allowed to stand overnight in a CO2 incubator (37° C.).
# (§3) The ADCs, Dxd single agent, and MMAE single agent were each adjusted with a culture solution so that the final concentration (in terms of MMAE and Dxd) was 0.1, 0.3, 1, 3, 10, 30, 100 nM, or the like, and were added at 100 μL/well to a 96-well plate inoculated with each human pancreatic adenocarcinoma, and then allowed to stand in a CO2 incubator (37° C.) for 6 days. Then, the culture medium containing the drug was removed with an aspirator, and the number of viable cells was measured by Cell Counting Kit-8 (manufactured by Dojindo Laboratories) according to the attached protocol. The reaction time of the reagent was three hours, and the absorbance was measured by SpectraMax Paradigm (manufactured by Molecular Devices). FIGS. 1A to 1E show the results of the cell-killing effects.
# [2] = test system: human pancreatic adenocarcinoma cell line (BxPC-3); test: Cell-killing effect on BxPC-3; assay type: cell-based; settings: read-out: IC50 values for BxPC-3
# Experimental: as §1, §2, §3
SMILES,"IC50 ([1]; Homo sapiens, PSN1, 144 h) [nM]","IC50 ([2]; Homo sapiens, BXPC-3, 144 h) [nM]","IC50 ([1]; FIG. 1B, concentration in terms of MMAE and Dxd, 6 days, Cell Counting Kit-8) [nM]","IC50 ([2]; FIG. 1A, concentration in terms of MMAE and Dxd, 6 days, Cell Counting Kit-8) [nM]"
CC[C@@]1(O)C(=O)OCc2c1cc1n(c2=O)Cc2c-1nc1cc(F)c(C)c3c1c2[C@@H](NC(=O)CO)CC3 [Dxd],7.92 ± 0.84,2.58 ± 0.26,–,–
"CC[C@H](C)[C@@H]([C@@H](CC(=O)N1CCC[C@H]1[C@H](OC)[C@@H](C)C(=O)N[C@H](C)[C@@H](O)c1ccccc1)OC)N(C)C(=O)[C@@H](NC(=O)[C@@H](NC)C(C)C)C(C)C [MMAE, monomethyl auristatin E] (H-[NMeV]V[Dil][Dolaproine]-X1)",–,–,0.73 ± 0.04,0.62 ± 0.04
